The values that follow come from patent US20230167073A1 (Teijin Pharma Limited, priority 2020, published 2023).

A value given as a limit tells only on which side of the number the result lay.

One assay deals with T1, Human TRPC6 (Homo sapiens, UniProt Q9Y210).
T1 construct: expressed in transfected cells
T1 sequence (Q9Y210 1-931): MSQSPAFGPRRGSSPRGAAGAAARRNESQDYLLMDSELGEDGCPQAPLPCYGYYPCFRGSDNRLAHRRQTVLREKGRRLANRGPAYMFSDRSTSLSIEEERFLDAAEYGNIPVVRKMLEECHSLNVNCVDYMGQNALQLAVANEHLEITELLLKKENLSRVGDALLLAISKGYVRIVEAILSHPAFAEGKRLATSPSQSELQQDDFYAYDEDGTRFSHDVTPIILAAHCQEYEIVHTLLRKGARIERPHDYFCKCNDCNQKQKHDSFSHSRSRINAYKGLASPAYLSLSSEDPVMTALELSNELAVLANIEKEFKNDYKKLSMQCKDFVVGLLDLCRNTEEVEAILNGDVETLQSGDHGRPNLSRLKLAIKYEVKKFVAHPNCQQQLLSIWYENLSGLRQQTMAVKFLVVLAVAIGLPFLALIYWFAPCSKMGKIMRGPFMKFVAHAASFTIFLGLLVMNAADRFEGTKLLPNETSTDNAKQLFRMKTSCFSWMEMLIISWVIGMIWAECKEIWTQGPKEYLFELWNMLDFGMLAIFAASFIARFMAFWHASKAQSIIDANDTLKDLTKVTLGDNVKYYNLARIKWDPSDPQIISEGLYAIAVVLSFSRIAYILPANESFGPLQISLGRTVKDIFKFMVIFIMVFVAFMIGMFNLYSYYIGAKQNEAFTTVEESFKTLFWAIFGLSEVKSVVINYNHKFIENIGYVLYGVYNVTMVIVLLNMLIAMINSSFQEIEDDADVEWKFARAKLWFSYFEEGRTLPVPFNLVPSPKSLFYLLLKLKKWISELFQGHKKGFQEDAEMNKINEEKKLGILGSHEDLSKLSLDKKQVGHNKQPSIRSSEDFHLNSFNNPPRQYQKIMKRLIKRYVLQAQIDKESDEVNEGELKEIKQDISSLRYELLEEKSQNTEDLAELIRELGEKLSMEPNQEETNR
Description: Evaluation of TRPC6 channel inhibitory activity (1), FLIPR Calcium 5 Assay Kit, OAG stimulation (Compound Nos. 1-1293). In kind it is cell-based.
Settings: not given
The gist of the method: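 TRPC6 (human) stable cells, 24 h culture; Ca5 no-wash dye + probenecid 30 min; cpd 20 min; OAG 30 μM final; ΔF (pre-cpd min to post-OAG max); 0%/100% = no cpd / no cpd + no OAG; 4PL → pIC50, binned +/++/+++.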
In the case of `Cc1nc(Oc2cc(C#N)ccc2-c2ncc(CN)cn2)cc(N2C3CCC2CC3)n1` [compound 672, 4-[5-(aminomethyl)pyrimidin-2-yl]-3-[6-(7-azabicyclo[2.2.1]heptan-7-yl)-2-methylpyrimidin-4-yl]oxybenzonitrile], the IC50 was under 10 nM.

Staying with this assay, now noted: Human TRPC6 stably-expressing cells, OAG 30 μM, FLIPR Calcium 5 Assay Kit; read-out: Inhibitory activity (pIC50 class) (converted).
As for `Cn1nc(-c2ccccc2)cc1Oc1cc(C#N)ccc1-c1ccc(CCN)nc1` [Compound 174, 4-[6-(2-aminoethyl)pyridin-3-yl]-3-(2-methyl-5-phenylpyrazol-3-yl)oxybenzonitrile], the IC50 is under 10 nM. For the molecule `Cn1nc(-c2ccccn2)cc1Oc1cc(C#N)ccc1-c1nc(Cl)c2c(n1)CCNC2` [compound 761], the IC50 is over 1000 nM. Same read-out and setting: the figure for `Cn1nc(-c2ccccc2)cc1Oc1cc(C#N)ncc1-c1ccc(CCN)cn1` [Compound No. 1277, 5-[5-(2-Aminoethyl)pyridin-2-yl]-4-(2-methyl-5-phenylpyrazol-3-yl)oxypyridine-2-carbonitrile] is 10 to 1000 nM. Same read-out and setting: the figure for `Cc1nc(Oc2cc(C#N)ccc2-c2ncc(CN)cn2)cc(N2CCCC2=O)n1` [compound 851, 4-[5-(aminomethyl)pyrimidin-2-yl]-3-[2-methyl-6-(2-oxopyrrolidin-1-yl)pyrimidin-4-yl]oxybenzonitrile] is over 1000 nM; for `Cc1cc(Oc2cc(C#N)ccc2-c2ccc(CN)cn2)cc(NC2CCOCC2)n1` [compound 647, 4-[5-(aminomethyl)pyridin-2-yl]-3-[2-methyl-6-(oxan-4-ylamino)pyridin-4-yl]oxybenzonitrile] it is over 1000 nM. As for `Cn1nc(-c2ccccn2)cc1Oc1cc(C#N)ccc1-c1cc(CN)cn2cnnc12` [compound 732, 4-[6-(aminomethyl)-[1,2,4]triazolo[4,3-a]pyridin-8-yl]-3-(2-methyl-5-pyridin-2-ylpyrazol-3-yl)oxybenzonitrile], the IC50 was 10 to 1000 nM. In the case of `Cn1nc(C2CC2)cc1Oc1cc(C#N)ccc1-c1cc(OCCN)ccn1` [compound 556, 4-[4-(2-aminoethoxy)pyridin-2-yl]-3-(5-cyclopropyl-2-methylpyrazol-3-yl)oxybenzonitrile], the IC50 was 10 to 1000 nM. `Cn1nc(C2CC2)cc1Oc1cc(C#N)ccc1-c1ccc(C(=O)CN)cn1` [compound 923, 4-[5-(2-aminoacetyl)pyridin-2-yl]-3-(5-cyclopropyl-2-methylpyrazol-3-yl)oxybenzonitrile]: the IC50 is 10 to 1000 nM. The same measure, in the same setting: the figure for `N#Cc1ccc(-c2ccc(CCN)cn2)c(Oc2nnc(C(F)(F)F)s2)c1` [Compound No. 712, 4-[5-(2-Aminoethyl)pyridin-2-yl]-3-[[5-(trifluoromethyl)-1,3,4-thiadiazol-2-yl]oxy]benzonitrile] is 10 to 1000 nM. Same read-out and setting: in the case of `Cc1nc(Oc2cc(C#N)ccc2-c2ncc(CN)cn2)cc(O[C@H]2CCOC2)n1` [compound 845, 4-[5-(aminomethyl)pyrimidin-2-yl]-3-[2-methyl-6-[(3S)-oxolan-3-yl]oxypyrimidin-4-yl]oxybenzonitrile] it was over 1000 nM. On the same count and under the same terms, the figure for `Cc1cc(Oc2cc(C#N)ccc2-c2ncc(CN)cn2)cc(-c2ccccn2)n1` [compound 572, 4-[5-(aminomethyl)pyrimidin-2-yl]-3-(2-methyl-6-pyridin-2-ylpyridin-4-yl)oxybenzonitrile] is 10 to 1000 nM. In the case of `Cc1nc(Oc2cc(C#N)ccc2-n2cc([C@H](O)CN)cn2)cc(-c2ccccn2)n1` [compound 356, 4-[4-[(1S)-2-amino-1-hydroxyethyl]pyrazol-1-yl]-3-(2-methyl-6-pyridin-2-ylpyrimidin-4-yl)oxybenzonitrile], the IC50 was 10 to 1000 nM.

Turning to `Cc1cc(Oc2cc(C#N)ccc2-c2ncc(CCN)cn2)cc(-c2cnccn2)n1` [compound 597, 4-[5-(2-aminoethyl)pyrimidin-2-yl]-3-(2-methyl-6-pyrazin-2-ylpyridin-4-yl)oxybenzonitrile], the IC50 was 10 to 1000 nM. As to `Cn1nc(-c2ncccc2F)cc1Oc1cc(C#N)ccc1-c1ncc(CN)cn1` [compound 649, 4-[5-(aminomethyl)pyrimidin-2-yl]-3-[5-(3-fluoropyridin-2-yl)-2-methylpyrazol-3-yl]oxybenzonitrile], the IC50 was 10 to 1000 nM.

Turning to `Cc1nc(-c2ccccc2)cn1Cc1cc(C#N)ccc1-n1cc(C(O)CN)cn1` (stereo not drawn) [compound 1128, 4-[4-(2-amino-1-hydroxyethyl)pyrazol-1-yl]-3-[(2-methyl-4-phenylimidazol-1-yl)methyl]benzonitrile], the IC50 was over 1000 nM. Still for that read-out and setting: in the case of `COC(C)(C)CN(C)c1cc(Oc2cc(C#N)ccc2-c2ncc(CCN)cn2)n(C)n1` [compound 868, 4-[5-(2-aminoethyl)pyrimidin-2-yl]-3-[5-[(2-methoxy-2-methylpropyl)-methylamino]-2-methylpyrazol-3-yl]oxybenzonitrile] it was 10 to 1000 nM; in that of `Cc1nc(-c2ccc(F)cc2)cn1Cc1cc(C#N)ccc1-c1ccc(CCN)cn1` [compound 1154, 4-[5-(2-aminoethyl)pyridin-2-yl]-3-[[4-(4-fluorophenyl)-2-methylimidazol-1-yl]methyl]benzonitrile], under 10 nM; in that of `Cn1nc(-c2ccc(F)cc2)cc1Oc1cc(C#N)ccc1-c1ccc(CCN)cn1` [Compound 185, 4-[5-(2-aminoethyl)pyridin-2-yl]-3-[5-(4-fluorophenyl)-2-methylpyrazol-3-yl]oxybenzonitrile], under 10 nM.

As to `Cc1cc(C(=O)c2cc(C#N)ccc2-c2ncc(CN)cn2)cc(N2CCOCC2)n1` [compound 1049, 4-[5-(aminomethyl)pyrimidin-2-yl]-3-(2-methyl-6-morpholin-4-ylpyridine-4-carbonyl)benzonitrile], the IC50 was under 10 nM.

On to `Cc1ccc(-c2cc(Oc3cc(C#N)ccc3-c3ccc(CCN)cn3)n(C)n2)nc1` [Compound 182, 4-[5-(2-aminoethyl)pyridin-2-yl]-3-[2-methyl-5-(5-methylpyridin-2-yl)pyrazol-3-yl]oxybenzonitrile], for which the IC50 was under 10 nM.

As for `Cc1cc(Oc2cc(C#N)ccc2-c2ccc(CN)nn2)cc(N2CCOCC2)n1` [compound 871, 4-[6-(aminomethyl)pyridazin-3-yl]-3-(2-methyl-6-morpholin-4-ylpyridin-4-yl)oxybenzonitrile], the IC50 is over 1000 nM. Regarding `Cc1nc(Oc2cc(C#N)ccc2-n2cc([C@@H](O)CN)cn2)cc(OC2CCC2)n1` [Compound 269, 4-[4-[(1R)-2-amino-1-hydroxyethyl]pyrazol-1-yl]-3-(6-cyclobutyloxy-2-methylpyrimidin-4-yl)oxybenzonitrile], the IC50 is 10 to 1000 nM.

In the case of `N#Cc1ccc(-c2ncc(CCN)cn2)c(Oc2cnnc(-c3ccccc3)c2)c1` [Compound 277, 4-[5-(2-aminoethyl)pyrimidin-2-yl]-3-(6-phenylpyridazin-4-yl)oxybenzonitrile], the IC50 was under 10 nM. Still for that read-out and setting: in the case of `Cn1nc(N2CCCC2)cc1Cc1cc(C#N)ccc1-c1ncc(CCN)cn1` [compound 1211, 4-[5-(2-aminoethyl)pyrimidin-2-yl]-3-[(2-methyl-5-pyrrolidin-1-ylpyrazol-3-yl)methyl]benzonitrile] it was under 10 nM; in that of `Cc1cc(Oc2cc(C#N)ccc2-c2ccc(C(=O)CN)cc2)cc(-c2ccccc2)n1` [Compound 201, 4-[4-(2-aminoacetyl)phenyl]-3-(2-methyl-6-phenylpyridin-4-yl)oxybenzonitrile], over 1000 nM; in that of `Cc1nc(Oc2cc(C#N)ccc2-c2cnc(C(O)CN)s2)cc(-c2ccccc2)n1` (stereo not drawn) [Compound 263, 4-[2-(2-amino-1-hydroxyethyl)-1,3-thiazol-5-yl]-3-(2-methyl-6-phenylpyrimidin-4-yl)oxybenzonitrile], 10 to 1000 nM. In the case of `CC(C)COc1cc(Oc2cc(C#N)ccc2-c2ncc(CN)cn2)cnn1` [compound 819, 4-[5-(aminomethyl)pyrimidin-2-yl]-3-[6-(2-methylpropoxy)pyridazin-4-yl]oxybenzonitrile], the IC50 was 10 to 1000 nM. The same measure, in the same setting: in the case of `Cc1nc(Oc2cc(C#N)ccc2-c2ncc(CCN)cn2)cc(N2CCC2)n1` [compound 853, 4-[5-(2-aminoethyl)pyrimidin-2-yl]-3-[6-(azetidin-1-yl)-2-methylpyrimidin-4-yl]oxybenzonitrile] it was 10 to 1000 nM; in that of `Cc1nc(Oc2cc(C#N)ccc2-c2ccc(CN)cn2)cc(N2CCCC2)n1` [compound 657, 4-[5-(aminomethyl)pyridin-2-yl]-3-(2-methyl-6-pyrrolidin-1-ylpyrimidin-4-yl)oxybenzonitrile], under 10 nM.
